Data taken from ChEMBL document CHEMBL5244219, “Recent developments of quinolone-based derivatives and their activities against Escherichia coli” (Eur J Med Chem, 2018).
Converted amounts (≈) assume the structure as drawn.

Legend:
[1] = test system: Escherichia coli; experiment: Antibacterial activity against Escherichia coli ATCC 35218 assessed as bacterial growth inhibition incubated for 18 hrs by agar dilution method; format: functional
[2] = test system: Escherichia coli; experiment: Antibacterial activity against Escherichia coli assessed as bacterial growth inhibition by broth microdilution method; format: functional
[3] = test system: Escherichia coli; experiment: Antibacterial activity against Escherichia coli assessed as bacterial growth inhibition incubated for 18 hrs by agar dilution method; format: functional
[4] = test system: Escherichia coli; experiment: Antibacterial activity against Escherichia coli TolC assessed as bacterial growth inhibition; format: functional
[5] = test system: Escherichia coli; experiment: Antibacterial activity against Escherichia coli DH5alpha assessed as bacterial growth inhibition; format: functional
[6] = test system: Escherichia coli; experiment: Antibacterial activity against Escherichia coli KC-14 infected in po dosed mouse assessed as bacterial growth inhibition; format: functional; conditions: Escherichia coli, KC-14, po, read-out: ED50
[7] = test system: Escherichia coli; experiment: Antibacterial activity against Escherichia coli KC-14 assessed as bacterial growth inhibition; format: functional
[8] = Cmax in mouse at 20 mg/kg, po; format: ADME, organism-based; design: dose 20 mg/kg, route po; conditions: in vivo
[9] = Half life in mouse at 20 mg/kg, po; format: ADME, organism-based; conditions: in vivo
[10] = AUC(0 to infinity) in mouse at 20 mg/kg, po; format: ADME, organism-based; design: dose 20 mg/kg, route po; conditions: in vivo
[11] = test system: Escherichia coli; experiment: Antibacterial activity against Escherichia coli ATCC 700603 assessed as bacterial growth inhibition by agar dilution method; format: functional
[12] = test system: Escherichia coli; experiment: Antibacterial activity against Escherichia coli assessed as bacterial growth inhibition; format: functional
[13] = test system: Escherichia coli; experiment: Antibacterial activity against Escherichia coli JM109 assessed as bacterial growth inhibition; format: functional
[14] = test system: Escherichia coli; experiment: Antibacterial activity against Escherichia coli assessed as bacterial growth inhibition incubated for 24 hrs by agar streak dilution method; format: functional
[15] = test system: Escherichia coli; experiment: Antibacterial activity against Escherichia coli NCDC 134 assessed as bacterial growth inhibition; format: functional
[16] = test system: Escherichia coli; experiment: Antibacterial activity against Escherichia coli assessed as bacterial growth inhibition incubated for 18 hrs by twofold serial dilution assay; format: functional
[17] = test system: Escherichia coli; experiment: Antibacterial activity against Escherichia coli assessed as bacterial growth inhibition incubated for 18 to 20 hrs by agar dilution method; format: functional; conditions: time 18-20 hrs
[18] = test system: Escherichia coli; experiment: Antibacterial activity against Escherichia coli K-12 C600 assessed as bacterial growth inhibition; format: functional
[19] = test system: Escherichia coli; experiment: Antibacterial activity against Escherichia coli ATCC 8739 assessed as bacterial growth inhibition; format: functional
[20] = test system: Escherichia coli; experiment: Antibacterial activity against Escherichia coli ISF 432 assessed as bacterial growth inhibition; format: functional
[21] = test system: Escherichia coli; experiment: Antibacterial activity against Escherichia coli H560 assessed as bacterial growth inhibition; format: functional
[22] = test system: Escherichia coli; experiment: Antibacterial activity against Escherichia coli assessed as bacterial growth inhibition by agar dilution method; format: functional
[23] = test system: Escherichia coli; experiment: Antibacterial activity against Escherichia coli ATCC 25922 infected in iv dosed mouse assessed as bacterial growth inhibition; format: functional

With `COc1cccc(CO/N=C2\CCN(c3c(F)cc4c(=O)c(C(=O)O)cn(C5CC5)c4c3OC)CC2N)c1` (stereo not given) the MIC [1] was < 0.008 µg/mL.
In the case of `CO/N=C1\CN(c2nc3c(cc2F)c(=O)c(C(=O)O)cn3[C@@H]2C[C@@H]2F)CC1CN` (stereo not given in full), the MIC [1] is reported as < 0.008 µg/mL.
With `CCn1cc(C(=O)NNS(=O)(=O)c2ccc(C)cc2)c(=O)c2ccccc21` the MIC [2] was 0.0625 µg/mL (≈ 0.162 µM).
In the case of `N[C@@H]1CN(c2c(F)cc3c(=O)c(C(=O)O)cn([C@@H]4C[C@@H]4F)c3c2Cl)CC12CC2` [SITAFLOXACIN ANHYDROUS], the MIC [3] is reported as ≤ 0.006 µg/mL.
With `Cc1[nH]c2ccccc2c(=O)c1C` the MIC50 [4] was > 1.41 µg/mL and the MIC50 [5] was > 64 µg/mL.
`CN1CCN(c2cc3c(cc2F)c(=O)c(C(=O)O)c2n3C(CF)S2)CC1` (stereo not given) gave an ED50 [6] of 0.85 mg/kg, an MIC [7] of 0.05 µg/mL (≈ 0.131 µM) and a Cmax [8] of 4400 ng/mL. The half-life [9] was 1.5 h and the AUC(0-inf) [10] was 6900 ng·h/mL.
With `COc1ccccc1CO/N=C1\CCN(c2c(F)cc3c(=O)c(C(=O)O)cn(C4CC4)c3c2OC)CC1N` (stereo not given) the MIC [1] was < 0.008 µg/mL.
In the case of `CCn1cc(C(=O)NN)c(=O)c2cc(Cl)ccc21`, the MIC [2] is reported as 0.0625 µg/mL (≈ 0.235 µM).
Compound `CCn1cc(C(=O)O)c(=O)c2cc(F)c(N3CCNCC3)cc21` [NORFLOXACIN] has an MIC [11] of 4 µg/mL (≈ 12.5 µM), an MIC [12] of 0.1 µg/mL (≈ 0.313 µM) and an MIC [13] of 1 µg/mL (≈ 3.13 µM). For the same compound, the MIC [14] was 6.25 µg/mL (≈ 19.6 µM), the MIC [15] was 25 µg/mL (≈ 78.3 µM) and the MIC [16] was 0.25 µg/mL (≈ 0.783 µM). The MIC [17] was 0.31 µg/mL (≈ 0.971 µM).
Compound `CN1CCN(c2cc3c(cc2F)c(=O)c(C(=O)O)c2n3CCS2)CC1` has an MIC [7] of 0.2 µg/mL (≈ 0.55 µM) and an MIC [18] of 0.2 µg/mL (≈ 0.55 µM).
With `CCn1cc(C(=O)NN)c(=O)c2cc(F)ccc21` the MIC [2] was 0.0625 µg/mL (≈ 0.251 µM).
For `CC(C)=CCC/C(C)=C/Cc1c(C)[nH]c2ccccc2c1=O`, the MIC50 [4] was > 1.41 µg/mL and the MIC50 [5] was > 64 µg/mL.
`Cc1c(N2CC(C)OC(C)C2)c(N)cc2c(=O)c(C(=O)O)cn(C3CC3)c12` (stereo not given) showed an MIC [19] of 0.008 µg/mL (≈ 0.0215 µM) and an MIC [20] of 0.008 µg/mL (≈ 0.0215 µM).
`COc1c(N2CCN(C)CC2)c(F)cc2c(=O)c(C(=O)O)c3n(c12)C(CF)S3` (stereo not given) gave an ED50 [6] of 0.76 mg/kg, an MIC [7] of 0.025 µg/mL (≈ 0.0608 µM) and a Cmax [8] of 3200 ng/mL. For the same compound, the half-life [9] was 1.2 h and the AUC(0-inf) [10] was 3500 ng·h/mL.
In the case of `COc1c(N2C[C@@H](N)C3(CC3)C2)c(F)cc2c(=O)c(C(=O)O)cn([C@@H]3C[C@@H]3F)c12`, the MIC [3] is reported as ≤ 0.006 µg/mL.
For `COc1c(N2CC3(CC3)[C@](C)(N)C2)c(F)cc2c(=O)c(C(=O)O)cn([C@@H]3C[C@@H]3F)c12`, the MIC [3] was ≤ 0.006 µg/mL.
For `NC1CCN(c2c(F)cc3c(=O)c(C(=O)O)cn(C4CC4)c3c2Cl)C1` (stereo not given) [CLINAFLOXACIN], the MIC [11] was 1 µg/mL (≈ 2.73 µM).
`COc1c(N2C[C@@H]3CCCN[C@@H]3C2)c(F)cc2c(=O)c(C(=O)O)cn(C3CC3)c12` [MOXIFLOXACIN] gave an MIC [4] of 11.5 µg/mL (≈ 28.7 µM), an MIC [21] of 0.006 µg/mL (≈ 0.0149 µM) and an MIC90 [22] of 4 µg/mL (≈ 9.96 µM).
In the case of `Cc1c(N2C[C@@H](F)[C@@H](C3(N)CC3)C2)c(F)c(N)c2c(=O)c(C(=O)O)cn([C@@H]3C[C@@H]3F)c12` [DQ-113], the MIC [21] is reported as ≤ 0.003 µg/mL.
With `COc1cccc(CO/N=C2\CCN(c3c(F)cc4c(=O)c(C(=O)O)cn(C5CC5)c4c3OC)CC2N)c1OC` (stereo not given) the MIC [1] was < 0.008 µg/mL.
`CC1Sc2c(C(=O)O)c(=O)c3cc(F)c(N4CCN(C)CC4)cc3n21` (stereo not given) gave an ED50 [6] of 0.97 mg/kg, an MIC [7] of 0.025 µg/mL (≈ 0.0688 µM) and a Cmax [8] of 940 ng/mL. For the same compound, the half-life [9] was 2.8 h and the AUC(0-inf) [10] was 2600 ng·h/mL.
For `COc1c(N2CCNC(C)C2)c(F)cc2c(=O)c(C(=O)O)cn(C3CC3)c12` (stereo not given) [GATIFLOXACIN], the MIC [15] was 100 µg/mL (≈ 266 µM), the MIC [17] was 0.015 µg/mL (≈ 0.04 µM) and the MIC [21] was 0.006 µg/mL (≈ 0.016 µM). For the same compound, the MIC90 [22] was 4 µg/mL (≈ 10.7 µM).
For `COc1c(N2CCN(C)CC2)c(F)cc2c(=O)c(C(=O)O)c3n(c12)C(C)S3` (stereo not given), the ED50 [6] was 1.28 mg/kg, the MIC [7] was 0.1 µg/mL (≈ 0.254 µM) and the Cmax [8] was 840 ng/mL. It also gave a half-life [9] of 4.9 h and an AUC(0-inf) [10] of 2700 ng·h/mL.
Work on `Cc1c(N2CCc3ccccc3C2)c(N)cc2c(=O)c(C(=O)O)cn(C3CC3)c12` yielded an MIC [19] of 0.008 µg/mL (≈ 0.0205 µM) and an MIC [20] of 0.008 µg/mL (≈ 0.0205 µM).
In the case of `CC(C)=CCc1c(C)[nH]c2ccccc2c1=O`, the MIC50 [4] is reported as > 1.41 µg/mL and the MIC50 [5] is reported as > 64 µg/mL.
Work on `CN1CCN(c2cc3c(cc2F)c(=O)c(C(=O)O)cn3-c2ccc(O)cc2)CC1` yielded an ED50 [23] of 0.75 mg/kg.
Work on `C[C@H]1NCc2cc(-c3ccc4c(=O)c(C(=O)O)cn(C5CC5)c4c3OC(F)F)ccc21` [GARENOXACIN] yielded an MIC90 [22] of 4 µg/mL (≈ 9.38 µM).
